The source of these data is ChEMBL document CHEMBL3132850, “5-Nor carbocyclic nucleosides: unusual nonnucleoside inhibitors of HIV-1 reverse transcriptase” (Medchemcomm, 2013).

In general, IC50 refers to the concentration that gives 50% inhibition. For orientation: EC50 means the concentration that produces a half-maximal response. One may read the CC50 as the concentration giving 50% cytotoxicity. A high value points to lower toxicity to the cells.

For data set [1], the target named is Human immunodeficiency virus type 1 reverse transcriptase (Human immunodeficiency virus 1, UniProt Q72547). Description: (§1) Inhibition of HIV1 wild type reverse transcriptase expressed in Escherichia coli BL21 (DE3) using [alpha-32P]dATP after 30 mins by liquid scintillation counting.
In data set [2] the test system is Human immunodeficiency virus 1. Briefly: Antiviral activity against HIV1 3B infected in human CEM cells assessed as reduction of giant cell formation after 4 days by microscopic analysis. The settings on record: Human immunodeficiency virus 1, 3B, CCRF-CEM, 96 h. In kind it is functional, organism-based.
The nature of data set [3]: Cytotoxicity against human CEM cells after 3 days. The class given is cell-based. The settings on record: CEM cells (CCRF-CEM).
Data set [4] relates to Human alphaherpesvirus 3. Briefly: Antiviral activity against Varicella-zoster virus. The class given is functional, organism-based.
Data set [5] concerns Punta Toro virus. Description: Antiviral activity against Punta Toro virus. In kind it is functional, organism-based.
The test system of data set [6] is Sindbis virus. Description: Antiviral activity against Sindbis virus. In kind it is functional, organism-based.
For data set [7], the system named is Mammalian orthoreovirus 1. Briefly: Antiviral activity against Reovirus-1. The class given is functional, organism-based.
Data set [8] deals with Human respirovirus 3. Briefly: Antiviral activity against Parainfluenza virus 3. In kind it is functional, organism-based.
Data set [9] deals with Influenza B virus. Description: Antiviral activity against Influenza B virus. In kind it is functional, organism-based.
Data set [10] has as its system Influenza A virus. Description: Antiviral activity against Influenza A virus H1N1. In kind it is functional, organism-based.
Data set [11] deals with Influenza A virus H3N2. Description: Antiviral activity against Influenza A virus H3N2. The class given is functional, organism-based.
Data set [12] deals with Respiratory syncytial virus. Description: Antiviral activity against Respiratory syncytial virus. In kind it is functional, organism-based.
Data set [13] has as its system Coxsackievirus B4. Briefly: Antiviral activity against Coxsackievirus B4. The class given is functional, organism-based.
Data set [14] concerns Vesicular stomatitis virus. Briefly: Antiviral activity against Vesicular stomatitis virus. The class given is functional, organism-based.
Data set [15] relates to Vaccinia virus. Description: Antiviral activity against Vaccinia virus. The class given is functional, organism-based. The conditions noted are these: Orthopoxvirus vaccinia.
Data set [16] concerns Human alphaherpesvirus 1. Briefly: Antiviral activity against Herpes simplex virus-1 KOS. The class given is functional, organism-based.
The test system of data set [17] is Human alphaherpesvirus 2. Briefly: Antiviral activity against Herpes simplex virus-2 G. In kind it is functional, organism-based. The conditions noted are these: strain G.
Data set [18] deals with Feline coronavirus. Briefly: Antiviral activity against Feline coronavirus. In kind it is functional, organism-based.
In data set [19] the target is Human immunodeficiency virus type 1 reverse transcriptase (Human immunodeficiency virus 1, UniProt Q72547, K103N/Y181C). Description: Inhibition of HIV1 reverse transcriptase K103N/Y181C mutant expressed in Escherichia coli BL21 (DE3) using [alpha-32P]dATP after 30 mins by liquid scintillation counting.
Data set [20] concerns the target Human immunodeficiency virus type 1 reverse transcriptase (Human immunodeficiency virus 1, UniProt Q72547, G190A). Briefly: Inhibition of HIV1 reverse transcriptase G190A mutant expressed in Escherichia coli BL21 (DE3) using [alpha-32P]dATP after 30 mins by liquid scintillation counting.
Data set [21] addresses Human immunodeficiency virus type 1 reverse transcriptase (Human immunodeficiency virus 1, UniProt Q72547, Y181C). Briefly: Inhibition of HIV1 reverse transcriptase Y181C mutant expressed in Escherichia coli BL21 (DE3) using [alpha-32P]dATP after 30 mins by liquid scintillation counting.
The target in data set [22] is Human immunodeficiency virus type 1 reverse transcriptase (Human immunodeficiency virus 1, UniProt Q72547, V106A). Description: Inhibition of HIV1 reverse transcriptase V106A mutant expressed in Escherichia coli BL21 (DE3) using [alpha-32P]dATP after 30 mins by liquid scintillation counting.
Data set [23] concerns the target Human immunodeficiency virus type 1 reverse transcriptase (Human immunodeficiency virus 1, UniProt Q72547, K103N). Briefly: Inhibition of HIV1 reverse transcriptase K103N mutant expressed in Escherichia coli BL21 (DE3) using [alpha-32P]dATP after 30 mins by liquid scintillation counting.
For data set [24], the target named is Human immunodeficiency virus type 1 reverse transcriptase (Human immunodeficiency virus 1, UniProt Q72547, L100I). Briefly: Inhibition of HIV1 reverse transcriptase L100I mutant expressed in Escherichia coli BL21 (DE3) using [alpha-32P]dATP after 30 mins by liquid scintillation counting.
The nature of data set [25]: Solubility of the compound in 10% DMSO up to 50 uM. In kind it is physicochemical.
Data set [26] deals with Human immunodeficiency virus 1. Description: Ratio of IC50 for HIV1 wild type reverse transcriptase to IC50 for HIV1 reverse transcriptase L100I mutant.
The target of data set [27] is Human immunodeficiency virus type 1 reverse transcriptase (Human immunodeficiency virus 1) (UniProt Q72547). The data set is described as §1.

SMILES strings stand for the structures. The source made the active and inactive calls. The rule behind the calls is not given here. A value given as a limit tells only on which side of the number the result lay.

In data set [1], `Cc1ccc(Cn2c(=O)cc(C)n(C3C=CC(OC(=O)c4ccccc4)C3)c2=O)cc1` (racemic) showed an IC50 of more than 50 µM. Moreover, in data set [2], the concentration giving a half-maximal response (EC50) was more than 10 µM. This molecule gave a CC50 at 72 h in data set [3] of 20 µM.

As for `Cc1cc(C)cc(Cn2c(=O)ccn(C3C=CC(OC(=O)c4ccccc4)C3)c2=O)c1` (racemic), the result in data set [4], in data set [5], in data set [6], in data set [7], in data set [8] and in [9] was inactive. The outcome in data set [10], in data set [11], in data set [12], in data set [13], in data set [14] and in [15] was inactive. Further, the result in [16], in data set [17] and in data set [18] was inactive. In addition, the IC50 is more than 50 µM in [19]; more than 50 µM in data set [20]; more than 50 µM in data set [21]; more than 50 µM in [22]; more than 50 µM in data set [23]; 11.1 µM in [24]. Also, the IC50 in [1] was more than 50 µM. Further, the solubility result in [25] is “soluble”. Further, the Ratio IC50 in data set [26] worked out at 10. The inhibition entry in data set [27] was “Dose-dependent effect”. In data set [2], the EC50 is more than 10 µM. This molecule also returned a CC50 at 72 h in data set [3] of 40 µM.

Consider `O=C(OC1C=CC(n2ccc(=O)[nH]c2=O)C1)c1ccccc1` (racemic), for which the concentration for half-maximal inhibition (IC50) in [1] was more than 100 µM. The EC50 in [2] is more than 250 µM. Moreover, the cytotoxic concentration (CC50) at 72 h in data set [3] was more than 250 µM.

For the molecule `Cc1cc(C)cc(Cn2c(=O)cc(C)n(C3C=CC(OC(=O)c4ccccc4)C3)c2=O)c1` (racemic), the IC50 in data set [1] is more than 50 µM. For the same molecule, the EC50 in data set [2] was more than 10 µM. The molecule also registered a CC50 at 72 h in data set [3] of 25 µM.

As to `Cc1cc(=O)[nH]c(=O)n1C1C=CC(OC(=O)c2ccccc2)C1` (racemic), the IC50 in data set [1] was more than 100 µM. Besides, the 50% effective concentration (EC50) in data set [2] was more than 50 µM. This molecule also showed a CC50 at 72 h in [3] of more than 250 µM.

With `Cc1cc(=O)n(C(=O)c2ccccc2)c(=O)n1C1C=CC(OC(=O)c2ccccc2)C1` (racemic), the IC50 in data set [1] was more than 100 µM. Besides, in [2], the EC50 was more than 50 µM. The CC50 at 72 h in data set [3] amounted to 191 µM.

Take `Cc1ccc(Cn2c(=O)ccn(C3C=CC(OC(=O)c4ccccc4)C3)c2=O)cc1` (racemic): the outcome in data set [4], in data set [5], in [6], in data set [7], in data set [8] and in [9] was inactive. The result in data set [10], in data set [11], in [12], in data set [13], in data set [14] and in data set [15] was inactive. The result in data set [16], in data set [17] and in [18] was inactive. For the same molecule, the half-maximal inhibitory concentration (IC50) in data set [19] was more than 50 µM; in [20], more than 50 µM; in [21] it was more than 50 µM; in data set [22], more than 50 µM; in data set [23] it was 55.4 µM; in [24], 2.4 µM. The molecule further came in with an IC50 in data set [1] of 18.7 µM. The half-maximal effective concentration (EC50) in data set [2] was more than 10 µM. Further, the 50% cytotoxic concentration (CC50) at 72 h in [3] was more than 25 µM.

As to `O=C(OC1C=CC(n2ccc(=O)n(C(=O)c3ccccc3)c2=O)C1)c1ccccc1` (racemic), in data set [1], the IC50 was more than 100 µM. The EC50 in data set [2] is more than 50 µM. Moreover, the CC50 at 72 h in data set [3] was not below 250 µM.

With `O=C(OC1C=CC(n2ccc(=O)n(Cc3ccccc3)c2=O)C1)c1ccccc1` (racemic), the outcome in [4], in [5], in data set [6], in data set [7], in data set [8] and in data set [9] was inactive. In addition, the outcome in data set [10], in data set [11], in [12], in data set [13], in [14] and in data set [15] was inactive. Moreover, the outcome in data set [16], in [17] and in [18] was inactive. Besides, the IC50 was more than 50 µM in data set [19]; more than 50 µM in data set [20]; more than 50 µM in [21]; more than 50 µM in [22]; 33.6 µM in data set [23]; 1.2 µM in data set [24]. Besides, half-maximal inhibition in data set [1] (IC50) required 13.4 µM. Besides, the EC50 in [2] was more than 10 µM. In [3], this molecule returned a CC50 at 72 h of more than 25 µM.

In the case of `CC(C)Nc1cccnc1N1CCN(C(=O)c2cc3cc(NS(C)(=O)=O)ccc3[nH]2)CC1` [DELAVIRDINE], in data set [2], the concentration for a half-maximal effect (EC50) stood at 0.11 µM. Besides, the CC50 at 72 h in data set [3] is more than 25 µM.

Turning to `Cc1ccnc2c1NC(=O)c1cccnc1N2C1CC1` [NEVIRAPINE], in data set [2], the EC50 stood at 0.024 µM. In data set [3], this molecule showed a CC50 at 72 h of more than 25 µM.

`O=C(OC1C=CC(n2ccc(=O)n(Cc3cc(F)cc(F)c3)c2=O)C1)c1ccccc1` (racemic) gave an IC50 in [1] of more than 50 µM. For the same molecule, the EC50 in [2] was more than 10 µM. For the same molecule, it took 32 µM to reach half-maximal cytotoxicity in [3] (CC50 at 72 h).

Regarding `O=c1ccn(C2C=CC(O)C2)c(=O)n1Cc1ccccc1` (racemic), the IC50 in data set [1] is more than 100 µM. This molecule returned a CC50 at 72 h in data set [3] of more than 250 µM.

In [1], `Cc1cc(=O)n(Cc2ccccc2)c(=O)n1C1C=CC(OC(=O)c2ccccc2)C1` (racemic) registered an IC50 of more than 50 µM. Besides, the EC50 in data set [2] is more than 10 µM. For the same molecule, the CC50 at 72 h in data set [3] was found to be 34 µM.

For `Cc1ccc(Cn2c(=O)ccn(C3C=CC(OC(=O)c4ccccc4)C3)c2=O)c(C)c1` (racemic), the IC50 in data set [1] was more than 50 µM. In addition, the EC50 in data set [2] is more than 50 µM. The molecule also displayed a CC50 at 72 h in [3] of 31 µM.
